In a melting point compilation (Tetko et al.; mined from patent text by program, amines drawn as free bases though some values may be those of a salt) one finds melting point data, which are given here for 38 compounds.

One may read the melting point as the temperature of the solid-liquid transition.

On to `CCc1ncc([N+](=O)[O-])n1CCS(=O)(=O)CC`, for which the melting point was in the range of 130 to 140 °C.

Consider `CCOCc1nc2c(N)nc(C)c(C)c2n1N(C)C`, for which the melting point fell in the range of 170 to 171 °C.

On to `NC(=O)n1nc(-c2ccccc2)cc1N`, for which the melting point was 255 °C.

In the case of `CCCCN1CC=C(c2cccc3c2CC(=O)N3)CC1`, the melting point lay in the range of 110 to 111 °C.

Take `COc1ccc(C=Cc2ccc(CBr)cc2)cc1`: the melting point fell in the range of 147 to 148 °C.

`c1cn2c(n1)-c1sccc1-n1cnc(-c3nc(C4CC4)no3)c1C2` had a melting point of 231 to 233 °C.

Consider `C(=C\c1nc(COc2ccc(CCCCn3cnc4ccccc43)cc2)co1)/c1ccccc1`, for which the melting point was in the range of 148 to 149 °C.

`FC(F)Sc1nc2ncccc2s1` displayed a melting point of 41 to 43 °C.

In the case of `O=C(O)c1cccc(-c2ccc(F)c3cc(Cc4cccc(C(F)(F)F)c4)oc23)c1`, the melting point was in the range of 172 to 173 °C.

Compound `CCc1nc2c(o1)C(=O)C=C(Nc1ccccc1)C2=O` gave a melting point of 200 °C.

The compound `NC(=O)NCCNc1ccc([N+](=O)[O-])cc1` displayed a melting point of 187 °C.

`Cc1cc(C)c2cccc(OCc3c(Cl)ccc(S(=O)(=O)N4CCC[C@H]4C(=O)NCCCN(C)C(=O)OC(C)(C)C)c3Cl)c2n1` came in with a melting point of 80 °C.

`OC(CCc1ccccc1)C(O)CCc1ccccc1` (stereo not drawn) gave a melting point of 128 to 129 °C.

In turn, `COc1ccc2oc3ccc(C=O)cc3c(=O)c2c1` yielded a melting point of 167 to 169 °C.

As for `C[C@@H]1OC=C[C@H](NC(=O)C(F)(F)F)[C@@]1(O)OC(=O)C(F)(F)F`, the melting point was in the range of 73 to 74 °C.

For `Nc1ccc(Cc2ccccn2)cc1[N+](=O)[O-]`, the melting point lay in the range of 128 to 132 °C.

`CC(=O)N1c2ccc([N+](=O)[O-])cc2CC1C(C)(C)C` (stereo not drawn) came in with a melting point of 99 °C.

On to `CCOC(=O)c1cn(C2CC2)c2c(F)c(Br)c(F)c(F)c2c1=O`, for which the melting point lay in the range of 187 to 189 °C.

Turning to `CC(=O)c1c(C)sc(C)c1CC(N)=O`, the melting point was 123 to 125 °C.

As to `COc1ccc(CN(OC)C(=O)C2=C(O)C(=O)N(C)C2)cc1`, the melting point fell in the range of 135 to 137 °C.

The compound `C=C=COc1ccccc1S(N)(=O)=O` gave a melting point of 94 to 95 °C.

For the compound `COCOCc1nc(N)c2ncc(O)nc2n1`, the melting point was in the range of 210 to 212 °C.

The compound `N#CCc1cccc2c(-c3ccc(Cl)cc3)nccc12` displayed a melting point of 132 °C.

On to `CCOC(=O)c1ccc(/C=C(\C)c2ccc3c(c2)C(C)(C)CCO3)cc1`, for which the melting point was in the range of 86 to 87 °C.

In turn, `COC1(c2cc(F)cc(Sc3ccc(C(=NO)c4nccs4)cc3)c2)CCOCC1` displayed a melting point of 153 to 154 °C.

In the case of `O=C1c2ccccc2CN1CCCN1CC=C(c2ccccc2)CC1`, the melting point is 104 °C.

Take `COc1cc(OC)nc(Oc2ccc3[nH]c(C)c(C=O)c3c2C(=O)OCc2ccccc2)n1`: the melting point lay within 148 to 149 °C.

As for `Cc1cc([N+](=O)[O-])c(C)nc1O`, the melting point was 263 °C.

For `CCOC(=O)C1COc2c(C(=O)c3ccccc3)cccc21` (stereo not drawn), the melting point was in the range of 42 to 43 °C.

In the case of `CC(C)(C)ON=C(C(=O)O)c1cccs1`, the melting point lay within 106 to 107 °C.

`COC(=O)c1ccc(Br)c(S)c1` showed a melting point of 81 °C.

Regarding `Cc1oc(-c2ccccc2)nc1COc1cccc2cc(NS(=O)(=O)C(F)(F)F)ccc12`, the melting point was in the range of 192 to 194 °C.

Turning to `C=Cc1ccc(OS(C)(=O)=O)cc1`, the melting point lay within 57 to 58 °C.

`O=C(c1cc(=O)c2c(OCCOc3ccccc3)cccc2o1)N1CCN(CCO)CC1` had a melting point of 191 °C.

`CC(=O)Nc1cccc2ccc(OCC3CC3)cc12` displayed a melting point of 154 to 155 °C.

In turn, `Cc1ccc(Nc2ccc(Nc3ncnc4cc(-c5ccccc5)sc34)cc2)cc1` gave a melting point of 221 to 222 °C.

Compound `CCCn1nc2c(N)nc3ccccc3c2c1CCNC(=O)c1cccnc1` registered a melting point of 219 to 221 °C.

In the case of `COc1cc(-c2ccccc2F)c(Cl)cc1C(=O)N1Cc2cccn2Cc2ccccc21`, the melting point was in the range of 192 to 194 °C.
